Active and inactive are the calls of the source.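 Rule for the calls: active = IC50 half-maximal inhibitory concentration at most 10 µM; inactive = IC50 above 10 µM.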

For the experiment, the target named is Melanocortin receptor 4 (Homo sapiens) (UniProt P32245). As to the kind of experiment: inhibition of agonist-driven MC4R beta-arrestin coupling – luminescence, biased ligand project, U2OS cells, late-stage follow-up (AID 651557). To be noted: U2OS MC4R beta-arrestin recruitment, beta-gal complementation luminescence. In general terms: Activated receptors often draw arrestin, which recruitment assays turn into a signal.
Sequence of Melanocortin receptor 4 (Homo sapiens) (P32245 whole entry, looked up): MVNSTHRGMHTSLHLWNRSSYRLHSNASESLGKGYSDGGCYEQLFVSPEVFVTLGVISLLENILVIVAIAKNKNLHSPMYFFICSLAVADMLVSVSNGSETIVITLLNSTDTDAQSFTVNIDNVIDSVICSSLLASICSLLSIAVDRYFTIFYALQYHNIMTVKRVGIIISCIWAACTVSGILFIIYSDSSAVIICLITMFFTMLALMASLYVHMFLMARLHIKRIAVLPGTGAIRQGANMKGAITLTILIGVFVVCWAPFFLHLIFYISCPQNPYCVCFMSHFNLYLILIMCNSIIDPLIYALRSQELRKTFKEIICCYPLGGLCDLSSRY
On to `COc1ccccc1C1(CCNC(C)c2cccs2)CCOC(C(C)C)C1` (configuration not stated), for which the IC50 (as a rule, the concentration at which inhibition is half-maximal) is 6.73 µM. Consider `CNC(=O)c1cc(Oc2ccc(NC(=O)CNc3ccc(Cl)c(C(F)(F)F)c3)cc2)ccn1`, for which the IC50 was > 50 µM (inactive). To `CC(=O)c1ccc(Nc2nc3ccc(C(=O)N(CCC(C)C)CCC(C)C)cc3n2CCCN2CCCCC2)cc1` belongs 0.00232 µM. The figure for `O=C1c2cccc3cccc(c23)C(=O)N1CC1CCN(CC(O)COc2ccc3ccccc3c2)CC1` (configuration not stated) is > 50 µM (inactive). Regarding `CCC1CCCCN1S(=O)(=O)c1ccc(NC(=O)c2ccccc2)cc1` (configuration not stated), the IC50 was > 50 µM (inactive). The figure for `CNC(=O)c1cc(Oc2ccc(NCC(=O)Nc3ccc(Cl)c(C(F)(F)F)c3)cc2)ccn1` is > 50 µM (inactive). Regarding `C#CC(=O)N(c1ccc(OC)c(OC)c1)C(C(=O)NC1CCCC1)c1cccs1` (configuration not stated), the IC50 result is “inactive”. The figure for `CCC1CCCCN1S(=O)(=O)c1ccc(NC(=O)c2ccnc(SC)n2)cc1` (configuration not stated) is > 50 µM (inactive). In the case of `Cc1ccccc1CN1Cc2cnnn2-c2ccccc2C1C#N` (configuration not stated), the IC50 entry is “inactive”. The figure for `CCC1CCCCN1S(=O)(=O)c1ccc(NC(=O)c2cccc(S(C)(=O)=O)c2)cc1` (configuration not stated) is > 50 µM (inactive). Turning to `CC1CCCCN1S(=O)(=O)c1ccc(NC(=O)c2nc(S(C)(=O)=O)ncc2Cl)cc1` (configuration not stated), the IC50 was 3.55 µM.

For the compound `COc1ccc(N(C(C)=O)C(C(=O)NC2CCCC2)c2cccs2)cc1OC` (configuration not stated), the IC50 was > 50 µM (inactive).

For the origin of these results see PubChem BioAssay AID651557 (The Scripps Research Institute Molecular Screening Center, 2012).
